Broadly, the pIC50 is the negative decadic logarithm of the IC50, by convention in mol/L. Broadly, the solubility is the concentration that dissolves in the medium under given conditions. A higher solubility goes with much dissolved substance.

Molecules are shown by their SMILES. pIC50: −log10 of the molar value. ≈ marks a conversion by molar mass, not a printed value.

Data set [1] deals with T1, Inhibitor of nuclear factor kappa-B kinase subunit epsilon (Homo sapiens, UniProt Q14164).
T1 sequence (Q14164 whole entry): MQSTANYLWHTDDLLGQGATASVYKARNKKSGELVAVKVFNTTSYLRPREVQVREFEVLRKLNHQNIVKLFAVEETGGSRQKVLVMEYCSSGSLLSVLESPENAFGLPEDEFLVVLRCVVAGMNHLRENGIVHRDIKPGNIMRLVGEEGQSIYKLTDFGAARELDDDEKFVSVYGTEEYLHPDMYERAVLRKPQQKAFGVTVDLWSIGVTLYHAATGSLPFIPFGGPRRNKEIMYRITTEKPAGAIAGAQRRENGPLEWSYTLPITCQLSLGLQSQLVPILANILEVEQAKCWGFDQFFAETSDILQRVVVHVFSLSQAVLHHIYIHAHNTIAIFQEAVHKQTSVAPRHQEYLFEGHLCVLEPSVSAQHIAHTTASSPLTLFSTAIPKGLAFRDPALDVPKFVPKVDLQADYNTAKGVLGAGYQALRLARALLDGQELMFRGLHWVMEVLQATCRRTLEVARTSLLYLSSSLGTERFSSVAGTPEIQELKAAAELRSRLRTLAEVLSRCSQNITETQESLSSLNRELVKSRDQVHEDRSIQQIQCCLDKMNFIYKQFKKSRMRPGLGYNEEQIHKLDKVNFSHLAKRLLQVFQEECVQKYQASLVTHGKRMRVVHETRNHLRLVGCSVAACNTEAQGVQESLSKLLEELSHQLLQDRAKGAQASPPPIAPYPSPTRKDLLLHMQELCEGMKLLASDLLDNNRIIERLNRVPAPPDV
The data set is described as follows: Inhibition of human recombinant IKKepsilon by TR-FRET assay. In general terms: Time-resolved FRET reads energy transfer from a long-lived donor to a nearby acceptor.

The target in data set [2] is Mitogen-activated protein kinase 10 (Homo sapiens, UniProt P53779). The data set is described as follows: Inhibition of JNK3.
Chain of Mitogen-activated protein kinase 10 (P53779 whole entry): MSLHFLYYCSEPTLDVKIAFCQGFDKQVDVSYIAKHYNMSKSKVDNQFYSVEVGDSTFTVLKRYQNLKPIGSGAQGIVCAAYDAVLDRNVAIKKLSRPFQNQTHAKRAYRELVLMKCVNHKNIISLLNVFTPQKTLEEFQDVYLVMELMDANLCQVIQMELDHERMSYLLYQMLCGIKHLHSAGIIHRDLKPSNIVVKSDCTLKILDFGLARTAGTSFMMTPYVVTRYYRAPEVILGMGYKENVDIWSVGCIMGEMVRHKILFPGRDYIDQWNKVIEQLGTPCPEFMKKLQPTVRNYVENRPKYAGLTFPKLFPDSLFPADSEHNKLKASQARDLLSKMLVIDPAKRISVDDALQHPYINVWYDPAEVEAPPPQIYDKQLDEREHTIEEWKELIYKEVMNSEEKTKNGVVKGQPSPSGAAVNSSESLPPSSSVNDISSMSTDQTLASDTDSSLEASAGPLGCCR
In a further data set the target is Cytochrome P450 2C9 (Homo sapiens, UniProt P11712). The data set is described as follows: Inhibition of CYP2C9. Type of data set: ADME.
A further data set addresses T2, Cytochrome P450 1A2 (Homo sapiens, UniProt P05177).
T2 sequence (P05177 whole entry): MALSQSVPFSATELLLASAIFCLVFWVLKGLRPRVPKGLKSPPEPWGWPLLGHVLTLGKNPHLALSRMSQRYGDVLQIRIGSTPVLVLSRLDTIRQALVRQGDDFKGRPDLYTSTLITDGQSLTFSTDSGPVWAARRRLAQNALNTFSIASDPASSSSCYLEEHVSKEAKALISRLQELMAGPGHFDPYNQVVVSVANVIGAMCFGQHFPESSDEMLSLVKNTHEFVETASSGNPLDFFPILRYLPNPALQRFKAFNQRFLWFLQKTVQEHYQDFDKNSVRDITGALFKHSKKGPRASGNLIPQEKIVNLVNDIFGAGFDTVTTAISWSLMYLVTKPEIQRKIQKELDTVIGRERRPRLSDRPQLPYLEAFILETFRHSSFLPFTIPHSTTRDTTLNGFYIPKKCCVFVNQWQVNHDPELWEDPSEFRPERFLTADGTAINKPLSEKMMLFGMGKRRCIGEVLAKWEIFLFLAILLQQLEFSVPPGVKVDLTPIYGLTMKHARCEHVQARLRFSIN
The data set is described as follows: Inhibition of CYP1A2. Type of data set: ADME.

In data set [3] the target is Mitogen-activated protein kinase 11 (Homo sapiens, UniProt Q15759). The data set is described as follows: Inhibition of p38beta.
Another data set addresses T3, TGF-beta receptor type-1 (Homo sapiens, UniProt P36897).
T3 sequence (P36897 whole entry): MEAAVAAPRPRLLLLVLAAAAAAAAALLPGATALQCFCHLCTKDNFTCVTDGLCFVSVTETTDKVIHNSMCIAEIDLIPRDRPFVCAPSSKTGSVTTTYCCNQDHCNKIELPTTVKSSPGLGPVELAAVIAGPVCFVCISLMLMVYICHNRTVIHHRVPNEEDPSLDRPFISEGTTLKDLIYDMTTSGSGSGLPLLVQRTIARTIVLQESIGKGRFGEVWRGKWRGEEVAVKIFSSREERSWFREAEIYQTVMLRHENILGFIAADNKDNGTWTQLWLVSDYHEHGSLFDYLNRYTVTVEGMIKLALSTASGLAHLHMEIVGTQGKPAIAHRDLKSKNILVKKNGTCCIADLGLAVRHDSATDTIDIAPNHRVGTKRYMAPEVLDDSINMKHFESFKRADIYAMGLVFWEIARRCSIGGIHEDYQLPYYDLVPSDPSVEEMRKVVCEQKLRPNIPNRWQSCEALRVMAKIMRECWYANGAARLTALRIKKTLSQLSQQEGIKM
The data set is described as follows: Inhibition of Alk5.

For data set [4], the target named is Mitogen-activated protein kinase 14 (Homo sapiens, UniProt Q16539). The data set is described as follows: Inhibition of p38alpha.
Chain of Mitogen-activated protein kinase 14 (Q16539 whole entry): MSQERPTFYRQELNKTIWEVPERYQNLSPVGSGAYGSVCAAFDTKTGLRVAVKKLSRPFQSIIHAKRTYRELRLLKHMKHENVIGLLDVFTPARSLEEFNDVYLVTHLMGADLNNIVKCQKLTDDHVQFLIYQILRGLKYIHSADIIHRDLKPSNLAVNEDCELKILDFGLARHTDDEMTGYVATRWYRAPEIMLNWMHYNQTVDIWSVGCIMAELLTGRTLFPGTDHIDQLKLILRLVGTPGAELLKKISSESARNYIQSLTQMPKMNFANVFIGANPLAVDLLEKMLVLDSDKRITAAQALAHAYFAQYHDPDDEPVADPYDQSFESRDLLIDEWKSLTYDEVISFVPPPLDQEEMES
Data set [5] can be described thus: Aqueous solubility of the compound. To be noted: buffer. The data set is classed as physicochemical.
The target of data set [6] is Serine/threonine-protein kinase PLK1 (Homo sapiens, UniProt P53350). The data set is described as follows: Inhibition of PLK1.
Chain of Serine/threonine-protein kinase PLK1 (P53350 whole entry): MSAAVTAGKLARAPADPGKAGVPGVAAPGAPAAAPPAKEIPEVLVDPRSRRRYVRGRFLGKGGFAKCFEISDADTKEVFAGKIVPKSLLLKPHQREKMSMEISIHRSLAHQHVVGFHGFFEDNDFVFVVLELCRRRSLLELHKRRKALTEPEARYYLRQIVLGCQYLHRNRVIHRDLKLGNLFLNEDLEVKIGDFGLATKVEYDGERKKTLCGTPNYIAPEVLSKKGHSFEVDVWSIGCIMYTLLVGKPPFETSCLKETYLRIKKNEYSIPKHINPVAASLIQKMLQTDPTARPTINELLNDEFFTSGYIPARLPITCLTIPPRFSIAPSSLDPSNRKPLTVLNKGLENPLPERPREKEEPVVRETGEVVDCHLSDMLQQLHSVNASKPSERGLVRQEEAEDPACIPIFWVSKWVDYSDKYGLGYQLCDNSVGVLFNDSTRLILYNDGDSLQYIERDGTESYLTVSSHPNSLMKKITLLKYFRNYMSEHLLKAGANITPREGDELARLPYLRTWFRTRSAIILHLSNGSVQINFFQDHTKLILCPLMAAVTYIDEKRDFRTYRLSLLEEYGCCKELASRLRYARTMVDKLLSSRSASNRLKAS
The next data set addresses Cytochrome P450 2D6 (Homo sapiens, UniProt P10635). The data set is described as follows: Inhibition of CYP2D6. The data set is classed as ADME.
Data set [7] has as its target Glycogen synthase kinase-3 (Homo sapiens, UniProt P49840+P49841). The data set is described as follows: Inhibition of GSK3. The data set is classed as protein assay.
Data set [8] concerns the target Epidermal growth factor receptor (Homo sapiens, UniProt P00533). The data set is described as follows: Inhibition of EGFR.
Another data set concerns the target Cytochrome P450 3A4 (Homo sapiens, UniProt P08684). The data set is described as follows: Inhibition of CYP3A4. The data set is classed as ADME.
In data set [9] the target is Receptor tyrosine-protein kinase erbB-2 (Homo sapiens, UniProt P04626). The data set is described as follows: Inhibition of ErB2.
Chain of Receptor tyrosine-protein kinase erbB-2 (P04626 whole entry): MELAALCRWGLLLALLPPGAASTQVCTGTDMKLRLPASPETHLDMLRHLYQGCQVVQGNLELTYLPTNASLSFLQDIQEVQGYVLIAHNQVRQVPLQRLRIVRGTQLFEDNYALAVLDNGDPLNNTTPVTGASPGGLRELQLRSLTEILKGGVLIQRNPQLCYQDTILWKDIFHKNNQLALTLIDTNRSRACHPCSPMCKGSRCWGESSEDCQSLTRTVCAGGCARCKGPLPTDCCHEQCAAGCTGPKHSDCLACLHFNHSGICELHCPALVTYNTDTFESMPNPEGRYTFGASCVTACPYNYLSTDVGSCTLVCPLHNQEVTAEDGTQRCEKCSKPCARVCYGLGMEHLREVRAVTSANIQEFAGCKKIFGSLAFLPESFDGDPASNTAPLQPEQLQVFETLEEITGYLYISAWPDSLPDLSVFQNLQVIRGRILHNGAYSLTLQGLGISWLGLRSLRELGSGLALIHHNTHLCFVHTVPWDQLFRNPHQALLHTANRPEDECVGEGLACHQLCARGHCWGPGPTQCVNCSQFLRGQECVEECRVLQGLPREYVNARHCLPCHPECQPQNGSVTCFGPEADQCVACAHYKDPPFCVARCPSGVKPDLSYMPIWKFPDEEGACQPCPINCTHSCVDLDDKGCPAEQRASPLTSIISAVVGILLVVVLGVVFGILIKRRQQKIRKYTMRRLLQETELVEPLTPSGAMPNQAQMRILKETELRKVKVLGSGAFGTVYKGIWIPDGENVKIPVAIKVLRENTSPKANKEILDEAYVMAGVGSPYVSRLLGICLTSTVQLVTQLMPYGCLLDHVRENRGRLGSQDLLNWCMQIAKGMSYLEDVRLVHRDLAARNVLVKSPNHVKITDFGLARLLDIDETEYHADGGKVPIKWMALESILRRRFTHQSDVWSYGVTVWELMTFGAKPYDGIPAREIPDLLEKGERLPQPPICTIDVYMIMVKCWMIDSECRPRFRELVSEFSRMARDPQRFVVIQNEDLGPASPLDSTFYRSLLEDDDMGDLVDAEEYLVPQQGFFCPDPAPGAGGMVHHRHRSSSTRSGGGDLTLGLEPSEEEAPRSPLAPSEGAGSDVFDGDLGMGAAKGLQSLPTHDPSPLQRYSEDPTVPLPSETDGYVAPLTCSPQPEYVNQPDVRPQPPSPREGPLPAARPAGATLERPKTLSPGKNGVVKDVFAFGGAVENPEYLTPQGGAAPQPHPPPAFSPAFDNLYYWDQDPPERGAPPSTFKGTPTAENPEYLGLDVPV

Chain of Cytochrome P450 3A4 (P08684 whole entry): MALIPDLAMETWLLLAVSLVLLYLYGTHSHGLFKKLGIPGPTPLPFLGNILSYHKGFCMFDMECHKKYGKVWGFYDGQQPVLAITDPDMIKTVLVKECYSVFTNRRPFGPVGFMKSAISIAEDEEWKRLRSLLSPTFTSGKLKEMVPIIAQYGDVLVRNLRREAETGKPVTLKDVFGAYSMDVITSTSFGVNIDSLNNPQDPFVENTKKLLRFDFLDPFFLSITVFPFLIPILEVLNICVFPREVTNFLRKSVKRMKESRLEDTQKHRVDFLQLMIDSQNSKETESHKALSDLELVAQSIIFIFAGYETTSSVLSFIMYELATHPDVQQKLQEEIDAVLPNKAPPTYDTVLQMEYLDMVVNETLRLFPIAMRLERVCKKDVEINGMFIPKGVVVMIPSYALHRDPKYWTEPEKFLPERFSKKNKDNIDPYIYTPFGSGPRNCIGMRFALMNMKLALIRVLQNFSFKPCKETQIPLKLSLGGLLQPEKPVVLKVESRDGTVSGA
Chain of Epidermal growth factor receptor (P00533 whole entry): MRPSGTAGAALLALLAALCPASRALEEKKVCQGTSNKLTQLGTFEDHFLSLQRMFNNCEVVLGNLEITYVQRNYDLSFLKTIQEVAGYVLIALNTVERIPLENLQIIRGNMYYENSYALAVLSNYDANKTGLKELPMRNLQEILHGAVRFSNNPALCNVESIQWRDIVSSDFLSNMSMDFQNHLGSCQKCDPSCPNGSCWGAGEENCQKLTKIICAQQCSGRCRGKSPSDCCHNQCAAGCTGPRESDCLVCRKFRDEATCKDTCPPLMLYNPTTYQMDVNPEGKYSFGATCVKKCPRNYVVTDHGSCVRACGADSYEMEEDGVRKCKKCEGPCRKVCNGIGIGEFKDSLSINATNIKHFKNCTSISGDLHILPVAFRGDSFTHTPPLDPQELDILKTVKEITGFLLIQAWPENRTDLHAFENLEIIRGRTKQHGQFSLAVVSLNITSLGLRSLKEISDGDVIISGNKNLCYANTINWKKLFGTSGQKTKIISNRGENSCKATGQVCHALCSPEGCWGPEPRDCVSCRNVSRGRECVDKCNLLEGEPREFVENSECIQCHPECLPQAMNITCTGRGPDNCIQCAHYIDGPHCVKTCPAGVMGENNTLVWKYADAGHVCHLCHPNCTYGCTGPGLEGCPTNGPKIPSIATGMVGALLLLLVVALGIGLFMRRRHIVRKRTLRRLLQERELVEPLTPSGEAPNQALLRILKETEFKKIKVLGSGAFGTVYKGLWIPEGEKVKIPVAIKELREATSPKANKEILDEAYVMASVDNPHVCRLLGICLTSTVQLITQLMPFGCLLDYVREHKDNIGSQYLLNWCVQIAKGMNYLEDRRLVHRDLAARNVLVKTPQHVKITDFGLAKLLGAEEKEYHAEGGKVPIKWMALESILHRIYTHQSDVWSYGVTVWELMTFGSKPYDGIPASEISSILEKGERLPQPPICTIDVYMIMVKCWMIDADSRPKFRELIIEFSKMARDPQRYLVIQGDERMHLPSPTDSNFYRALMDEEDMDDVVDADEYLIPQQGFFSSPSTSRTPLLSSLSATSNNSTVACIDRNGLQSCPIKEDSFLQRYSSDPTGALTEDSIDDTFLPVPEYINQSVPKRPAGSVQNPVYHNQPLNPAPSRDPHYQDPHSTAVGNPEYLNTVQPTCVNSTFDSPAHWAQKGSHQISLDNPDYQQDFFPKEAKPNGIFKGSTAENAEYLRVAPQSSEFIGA
Chain of Cytochrome P450 2D6 (P10635 whole entry): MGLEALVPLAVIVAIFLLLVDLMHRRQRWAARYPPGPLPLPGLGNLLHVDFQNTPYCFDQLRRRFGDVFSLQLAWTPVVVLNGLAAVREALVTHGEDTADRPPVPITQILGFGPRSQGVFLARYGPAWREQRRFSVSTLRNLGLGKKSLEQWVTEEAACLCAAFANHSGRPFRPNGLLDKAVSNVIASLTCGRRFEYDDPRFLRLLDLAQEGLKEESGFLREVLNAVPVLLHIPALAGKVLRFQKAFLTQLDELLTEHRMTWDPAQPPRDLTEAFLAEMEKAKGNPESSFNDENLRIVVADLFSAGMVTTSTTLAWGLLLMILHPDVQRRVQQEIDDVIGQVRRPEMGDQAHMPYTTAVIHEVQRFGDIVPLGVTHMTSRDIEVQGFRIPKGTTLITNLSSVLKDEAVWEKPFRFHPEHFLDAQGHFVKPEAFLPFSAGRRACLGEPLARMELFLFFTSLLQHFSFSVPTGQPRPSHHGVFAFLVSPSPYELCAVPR

`COc1cc2c(cc1OCCCO)ncn2-c1cc(OCc2ccccc2C(F)(F)F)c(C#N)s1`: the pIC50 in data set [1] was 7.60. Consider `COc1cc2ncn(-c3cc(OCC4CC4)c(C#N)s3)c2cc1OC`, for which, in data set [1], the negative-log IC50 (pIC50) was 5.50.

Consider `COc1cc2ncn(-c3cc(OCc4ccccc4S(C)(=O)=O)c(C#N)s3)c2cc1OC` [GSK-319347A], for which the pIC50 is under 4.80 in [2]; under 4.30 at Cytochrome P450 2C9; under 4.30 at Cytochrome P450 1A2; under 4.80 in data set [3]; under 5.30 on TGF-beta receptor type-1; 7.40 in data set [1]. For the same compound, the negative-log IC50 (pIC50) in data set [4] was under 4.80; in [6], 6.10; at Cytochrome P450 2D6 it was under 4.30; in data set [8] it was under 5.00; at Cytochrome P450 3A4 it was under 4.30; in [9], under 5.00. The compound further returned a solubility in [5] of 60 µM (≈ 28.2 µg/mL). In data set [7], the Log IC50 is over -4.8. As for `COc1cc2ncn(-c3cc(OCc4ccccc4C(F)(F)F)c(C#N)s3)c2cc1OC`, the negative logarithm of the IC50 (pIC50) in data set [1] is 6.60.

With `COc1cc2ncn(-c3cc(OCC4CCCO4)c(C(N)=O)s3)c2cc1OC` (configuration not stated), the negative-log IC50 (pIC50) in data set [6] is 6.60. Consider `COc1cc2ncn(-c3cc(OCc4ccc(C(N)=O)cc4)c(C#N)s3)c2cc1OC`, for which, in data set [1], the negative logarithm of the IC50 (pIC50) is 4.90. Same read-out and setting: the figure for `COc1cc2ncn(-c3cc(O[C@H](C)c4ccccc4C(F)(F)F)c(C#N)s3)c2cc1OC` is 5.40. In data set [6], `COc1cc2ncn(-c3cc(OCc4ccc(S(C)(=O)=O)cc4)c(C(N)=O)s3)c2cc1OC` had a negative-log IC50 (pIC50) of 6.90. As to `COc1cc2ncn(-c3cc(O)c(C#N)s3)c2cc1OC`, the negative-log IC50 (pIC50) in data set [1] was 5.60. In the case of `COc1cc2ncn(-c3cc(OCc4ccccc4)c(C(=O)O)s3)c2cc1OC`, the negative-log IC50 (pIC50) in [1] was under 4.80; in data set [6] it was 6.20. Consider `COc1cc2ncn(-c3cc(OCCN4CCCCC4)c(C#N)s3)c2cc1OC`, for which, in [1], the negative-log IC50 (pIC50) was 5.30. The same measure, in the same setting: the figure for `COc1cc2ncn(-c3cc(O[C@H](C)c4ccccc4Cl)c(C(N)=O)s3)c2cc1OC` [GSK-237701A] is 4.70. On the same count and under the same terms, the figure for `COc1cc2c(cc1OCCN1CCOCC1)ncn2-c1cc(OCc2ccccc2C(F)(F)F)c(C#N)s1` is 7.30. The same measure, in the same setting: the figure for `N#Cc1sc(-n2cnc3ccccc32)cc1OCc1ccccc1` is 6.00; for `COc1cc2ncn(-c3cc(OCCN4CCOCC4)c(C#N)s3)c2cc1OC` it is 5.80.

With `COc1cc2ncn(-c3cc(OCC4CCCO4)c(C#N)s3)c2cc1OC` (configuration not stated), in data set [1], the negative logarithm of the IC50 (pIC50) was 6.10.

Turning to `COc1cc2ncn(-c3cc(OCc4ccc(S(C)(=O)=O)cc4)c(C#N)s3)c2cc1OC`, the negative logarithm of the IC50 (pIC50) was 5.30 in data set [1] and 6.20 in [6].

(Values after ChEMBL document CHEMBL1146152, “5-(1H-Benzimidazol-1-yl)-3-alkoxy-2-thiophenecarbonitriles as potent, selective, inhibitors of IKK-epsilon kinase” (Bioorg Med Chem Lett, 2006).)
